# Data: ChEMBL document CHEMBL4619734, “Molecule Property Analyses of Active Compounds for Mycobacterium tuberculosis” (J Med Chem, 2020)
# Assays:
# [1] = test system: Mycobacterium tuberculosis; test: Antimycobacterial activity against Mycobacterium tuberculosis; type: functional
# [2] = test system: Mycobacterium tuberculosis; test: Antimycobacterial activity against Mycobacterium tuberculosis H37Rv; type: functional
# [3] = test system: Mycobacterium tuberculosis; test: Antimycobacterial activity against Mycobacterium tuberculosis H37Rv ATCC 27294 assessed as reduction in mycolic acids synthesis after 8 hrs in presence of [1, 2-14C]-acetate by TLC analysis; type: functional; details: H37Rv ATCC 27294, 8 h
# [4] = Inhibition of human cytoplasmic LeuRS
# [5] = molecular target: T1, Leucine--tRNA ligase (Mycobacterium tuberculosis (strain ATCC 25618 / H37Rv), UniProt P9WFV1); test: Inhibition of Mycobacterium tuberculosis LeuRS expressed in Escherichia coli Rosetta (DE3) cells
# T1 sequence (P9WFV1 whole entry): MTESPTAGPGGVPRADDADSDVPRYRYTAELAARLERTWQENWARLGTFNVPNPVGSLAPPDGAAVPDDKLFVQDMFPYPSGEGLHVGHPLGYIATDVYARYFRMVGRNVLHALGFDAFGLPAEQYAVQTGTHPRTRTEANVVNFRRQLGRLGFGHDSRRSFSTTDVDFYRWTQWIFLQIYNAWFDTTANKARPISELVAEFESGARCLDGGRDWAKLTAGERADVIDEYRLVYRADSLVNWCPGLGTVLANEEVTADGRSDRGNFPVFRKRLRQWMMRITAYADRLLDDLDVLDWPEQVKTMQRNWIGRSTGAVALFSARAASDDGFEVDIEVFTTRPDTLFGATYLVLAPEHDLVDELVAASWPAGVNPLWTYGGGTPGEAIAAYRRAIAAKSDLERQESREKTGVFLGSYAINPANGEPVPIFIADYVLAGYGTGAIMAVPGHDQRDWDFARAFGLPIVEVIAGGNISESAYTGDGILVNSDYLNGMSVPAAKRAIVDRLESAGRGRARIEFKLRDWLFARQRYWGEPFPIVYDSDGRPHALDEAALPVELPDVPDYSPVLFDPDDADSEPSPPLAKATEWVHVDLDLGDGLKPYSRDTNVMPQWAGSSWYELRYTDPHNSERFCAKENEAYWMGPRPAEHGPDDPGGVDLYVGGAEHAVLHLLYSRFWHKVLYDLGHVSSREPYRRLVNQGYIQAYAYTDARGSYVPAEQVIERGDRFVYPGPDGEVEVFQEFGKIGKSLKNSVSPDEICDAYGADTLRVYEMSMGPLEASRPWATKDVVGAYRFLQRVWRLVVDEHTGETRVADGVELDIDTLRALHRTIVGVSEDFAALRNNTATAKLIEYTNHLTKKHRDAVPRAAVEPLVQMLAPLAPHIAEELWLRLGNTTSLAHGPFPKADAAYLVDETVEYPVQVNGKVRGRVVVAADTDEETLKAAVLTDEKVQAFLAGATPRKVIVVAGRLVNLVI
# [6] = test system: Mycobacterium tuberculosis; test: Antimycobacterial activity against Mycobacterium tuberculosis H37Rv expressing LeuRS; type: functional
# [7] = test system: Mycobacterium tuberculosis; test: Antimycobacterial activity against Mycobacterium tuberculosis H37Ra after 7 to 8 days by MABA assay; type: functional
# [8] = test system: Mycobacterium tuberculosis; test: Antimycobacterial activity against Mycobacterium tuberculosis expressing Rv1258c efflux pump; type: functional
# [9] = test system: Mycobacterium avium; test: Antimycobacterial activity against Mycobacterium avium 33 expressing MraY; type: functional
# [10] = test system: Mycobacterium tuberculosis; test: Antimycobacterial activity against Mycobacterium tuberculosis clinical isolates; type: functional
# [11] = test system: Mycobacterium tuberculosis; test: Antimycobacterial activity against Mycobacterium tuberculosis expressing WecA; type: functional
# [12] = test system: Mycobacterium avium; test: Antimycobacterial activity against Mycobacterium avium infected in mouse assessed as reduction in mycolic acids synthesis; type: functional
# [13] = test system: Mycolicibacterium smegmatis; test: Antimycobacterial activity against Mycobacterium smegmatis; type: functional
# [14] = test system: Mycobacterium tuberculosis; test: Antimycobacterial activity against Mycobacterium tuberculosis expressing DprE1; type: functional
smiles,measurement,setting,value
c1ccc(-c2c[nH]cn2)cc1,MIC,[1],< 10 µM
CCCCS(=O)(=O)Nc1ccc2cnn(C)c2c1,MIC,[2],0.8 µM
COc1ccc(/C(C)=N/NC(N)=S)cc1,MIC,[3],< 0.05 µg/mL
NC[C@H]1OB(O)c2c(OCCO)ccc(Cl)c21,IC50,[4],140 µM
same,IC50,[5],0.216 µM
same,MIC,[6],0.08 µM
NC(=O)c1sc(N2CCOCC2)cc1OCCc1ccc(OC(F)(F)F)cc1,MIC,[1],0.24 µM
CCCCCCCCCCNC(CC(=O)OCC)[C@H]1O[C@@H]2OC(C)(C)O[C@@H]2C1OC (some centres not stated),MIC,[7],3.12 µg/mL
CN[C@H]1[C@@H](O)[C@@H](NC)CC2O[C@@H]3O[C@H](C)C[C@@H](NC(=O)Cc4ccc(O)cn4)[C@]3(O)C[C@@H]21 (some centres not stated),MIC,[8],1.6 µg/mL
CN[C@H]1[C@@H](O)[C@@H](NC)CC2O[C@@H]3O[C@H](C)C[C@@H](NC(=O)Cc4ccc(Cl)cn4)[C@]3(O)C[C@@H]21 (some centres not stated),MIC,[8],0.8 µg/mL
CO[C@H]1[C@@H](O)[C@H](n2ccc(=O)[nH]c2=O)O[C@@H]1[C@@H](O[C@H]1OC(C(=O)NC2CCC[C@@H](C)NC2=O)=C[C@H](O)[C@@H]1O)C(N)=O (some centres not stated),MIC,[9],1 µg/mL
Cc1ccc(OCCCCCCn2ccnc2)c(C)c1,MIC,[1],4.8 µg/mL
CC(=O)NC[C@H]1CN(c2cc(F)c(C3=CCN(C(=O)[C@@H](O)CO)CC3)c(F)c2)C(=O)O1,MIC,[10],0.25 to 1 µg/mL
CCCCc1ccc(NC(=O)C2=CCN(C)C(C(O[C@@H]3O[C@H](CN)[C@@H](O)[C@H]3O)[C@H]3OC(n4ccc(=O)[nH]c4=O)[C@H](O)[C@@H]3O)C(=O)N2C)cc1 (some centres not stated),MIC,[11],1.56 µg/mL
Cc1c(C(=O)C2CC2)[n+]([O-])c2cc(Cl)c(Cl)cc2[n+]1[O-],MIC,[1],1.2 µg/mL
Cc1nn2c(O)cc(-c3ncccn3)nc2c1-c1ccc(Cl)cc1,MIC,[1],1.1 µg/mL
O=[N+]([O-])c1ccc(/C=N/Nc2nc(Nc3ccccc3)nc(N3CCOCC3)n2)o1,MIC,[1],0.63 µM
O=[N+]([O-])c1ccc(/C=N/Nc2nc(Nc3ccccc3)nc(Nc3ccccc3)n2)o1,MIC,[1],0.078 µM
Cc1ccc(C(=O)Nc2ccc([N+](=O)[O-])cc2)s1,MIC,[1],0.5 µg/mL
CCCCCCCCc1nc2cc(C)c(C)cc2[nH]1,MIC90,[1],0.75 µM
CC(=O)Nc1ccc(/C=N/NC(N)=S)cc1 [AMITHIOZONE],MIC,[12],0.1 µg/mL
COc1nc2ccc(Br)cc2cc1[C@@H](c1ccccc1)[C@@](O)(CCN(C)C)c1cccc2ccccc12 [BEDAQUILINE],MIC99,[13],0.03 µg/mL
C[C@H]1COC2(CCN(c3nc(=O)c4cc(C(F)(F)F)cc([N+](=O)[O-])c4s3)CC2)O1 [BTZ-043],MIC,[14],0.001 µg/mL
C[C@]1(COc2ccc(N3CCC(Oc4ccc(OC(F)(F)F)cc4)CC3)cc2)Cn2cc([N+](=O)[O-])nc2O1 [DELAMANID],MIC,[1],0.012 µg/mL
NC(=S)N/N=C/c1cccnc1 [NICOTHIAZONE],MIC,[3],3.1 µg/mL
O=[N+]([O-])c1cn2c(n1)OC[C@@H](OCc1ccc(OC(F)(F)F)cc1)C2 [PRETOMANID],MIC90,[1],0.039 µg/mL
CC(=O)NC[C@H]1CN(c2ccc(N3CCSCC3)c(F)c2)C(=O)O1 [SUTEZOLID],MIC,[1],0.03 to 0.5 µg/mL
